{
  "source": "paper PMC10380083",
  "about": "“Synthesis of Prostate-Specific Membrane Antigen-Targeted Bimodal Conjugates of Cytotoxic Agents and Antiandrogens and Their Comparative Assessment with Monoconjugates” (International Journal of Molecular Sciences, 2023)",
  "key": {"[1]": {"assay": "Body weight, general condition and mortality in the antitumor efficacy study", "conditions": "i.v. 132.3 nM/kg x3", "procedure": "Animal body weight data are presented in Table S2 in the electronic supplementary materials.\nTo study the antitumor efficacy, conjugates were administered intravenously at a dose of 132.3 nM/kg to tumor-bearing mice three times at five-day intervals; administration was started 7−8 days after cell inoculation, and the tumor size was 70−90 mm^3. As a control substance, 0.9% sodium chloride solution was used. Experimental groups included five animals each. […] The mixture was dissolved in DMSO (5% of final solution) and diluted with hemodesum (30% low-molecular-weight polyvinylpyrrolidone (Mw = 8000 ± 200) saline infusion solution). The presence of tumors and their sizes, as well as the body weights of the mice, were recorded every five days during the observation of the animals. The antitumor effect was assessed by comparing the tumor volumes in the experimental and control groups as well as the amount of tumor growth inhibition (TGI, %). […]\n(§1) 3.2.1. In vivo evaluation of antitumor efficacy […]\n(§2) intravenously at a dose of 132.3 nM/kg to tumor-bearing mice three times at 5-day intervals, the administration was started 7-8 days after cell inoculation to animals, tumor size was 70-90 mm3.\n(§3) A 0.9% sodium chloride solution was used as a control substance. The experimental groups […]\n(§4) The presence of tumor masses and their size, as well as the body weight of the mice, were recorded every 5 days during observation. In accordance with humane principles, animals were euthanized by placing the mice in a CO2 inhalation chamber (ZOONLAB GmbH, Germany).\nConjugate Method of injection Dose Number of animals 22Rv1 PC-3 […]\n3.4. In vivo Efficacy Evaluation\nDays after tumor implantation / mass± error, g\nConjugate 7 day 12 day 17 day […]\ninjection) injection) injection)\nHuman prostate carcinoma 22Rv1\nHuman prostate adenocarcinoma PC-3\nTable S3. Tumor growth dynamics of 22Rv1 and PC-3 in mice with intravenous triple injection of […]\nate Days after tumor implantation / V±m, mm3"}, "[2]": {"test_system": "PC-3 prostate adenocarcinoma xenograft", "conditions": "PC-3 xenograft; for tumor volume V±m: i.v. triple injection, single dose 132.3 nM/kg; for Tumor growth inhibition: i.v. 132.3 nM/kg three times", "procedure": "(§5) We carried out in vivo studies of the efficacy of the obtained bimodal conjugates. […] Also, conjugate I (Figure 5) was used as a reference compound. An isotonic (0.9%) sodium chloride solution was used as a negative control. Studies were carried out in xenograft models of 22Rv1 human prostate carcinoma and PC-3 prostate adenocarcinoma in immunodeficient Balb/c nude mice (male).\n(§6) Two cell lines were used: human prostate carcinoma 22Rv1 and prostate adenocarcinoma PC-3 (ATCC collection). Cells were cultured in 75 cm^2 vials (Costar, Washington, DC, USA) in RPMI-1640 medium (PanEco, Russia) with the addition of 2 mM L-glutamine (PanEco, Russia) and 10% fetal calf serum (HyClone, Logan, UT, USA) under standard conditions of cultivation (in a humidified atmosphere at 37 °C and 5% CO2). Cells of 6–10 passages were used to inoculate the animals. Cell suspension was prepared with a concentration of 5 × 10^6 cells in 0.05 mL of the 22Rv1 medium and in 0.1 mL of the PC-3 medium. 22Rv1 cells were inoculated into animals in Matrigel (BD Matrigel Basement Membrane Matrix, BD Biosciences, San Jose, CA, USA). Manipulations with Matrigel were performed on a refrigerated plate using precooled materials, tubes and instrumentation. For animal administration, 50 μL of the cell suspension (5 × 10^6 cells) was transferred to a chilled tube containing 50 μL of Matrigel; after mixing, the cellular material (final volume of 100 μL) was injected subcutaneously into the groin area of the animal. To obtain subcutaneous xenograft PC-3, a 5 × 10^6 suspension of tumor cells was inoculated subcutaneously into the inguinal cavity of male mice in a volume of 0.1 mL.\n(§7) To study the antitumor efficacy, conjugates were administered intravenously at a dose of 132.3 nM/kg to tumor-bearing mice three times at five-day intervals; administration was started 7−8 days after cell inoculation, and the tumor size was 70−90 mm^3. As a control substance, 0.9% sodium chloride solution was used. Experimental groups included five animals each. […] The mixture was dissolved in DMSO (5% of final solution) and diluted with hemodesum (30% low-molecular-weight polyvinylpyrrolidone (Mw = 8000 ± 200) saline infusion solution). The presence of tumors and their sizes, as well as the body weights of the mice, were recorded every five days during the observation of the animals. The antitumor effect was assessed by comparing the tumor volumes in the experimental and control groups as well as the amount of tumor growth inhibition (TGI, %).\n(§8) Tumor volume was calculated using Formula (1):V = d1 × d2 × d3 × 0.52(1) where d1, d2 and d3 are the three mutually perpendicular dimensions of the tumor. […]\nas §1, §2, §3, §4"}, "[3]": {"test_system": "22Rv1 human prostate carcinoma xenograft", "conditions": "22Rv1 xenograft; for tumor volume V±m: i.v. triple injection, single dose 132.3 nM/kg; for Tumor growth inhibition: i.v. 132.3 nM/kg three times", "procedure": "as §5, §6, §7, §8, §1, §2, §3, §4"}, "[4]": {"conditions": "7 day after tumor implantation (1st injection)"}, "[5]": {"conditions": "12 day after tumor implantation (2nd injection)"}, "[6]": {"conditions": "17 day after tumor implantation (3rd injection)"}, "[7]": {"conditions": "33 day after tumor implantation"}, "[8]": {"conditions": "37 day after tumor implantation"}, "[9]": {"conditions": "days after the start of treatment: 16"}, "[10]": {"conditions": "days after the start of treatment: 20"}},
  "note": "Like-named read-outs stand apart in the source and are kept apart here. *1 amine or outer side, *2 acyl side, *3 side chain or, on linkers, in order; H or OH if unused. Where a SMILES comes first, the peptide text is derived from it. [ ]: non-standard residue; d: D form. The star is where a group is joined. GluureaLys(ε-3-ClBenzyl) = O=C(O)CC[C@H](NC(=O)N[C@@H](CCCCN(Cc1cccc(Cl)c1)*)C(=O)O)C(=O)O; Dolaproine = CO[C@@H]([C@@H]1CCCN1)[C@@H](C)C(=O)O; Dil = CC[C@H](C)[C@H](NC)[C@@H](CC(=O)O)OC; X2 = O=C(CCCc1cn(CCCN[*:1])nn1)[*:2]; PABC = O=C(OCc1ccc(N[*:1])cc1)[*:2]; X1 = C[C@@H](N*)[C@@H](O)c1ccccc1; Cit = NC(=O)NCCC[C@H](N)C(=O)O; Suc = O=C(CCC(=O)[*:2])[*:1]; NMeV = CN[C@H](C(=O)O)C(C)C; Ahx = NCCCCCC(=O)O",
  "data": [
    {"smiles": "CC[C@H](C)[C@@H]([C@@H](CC(=O)N1CCC[C@H]1[C@H](OC)[C@@H](C)C(=O)N[C@H](C)[C@@H](O)c1ccccc1)OC)N(C)C(=O)[C@@H](NC(=O)[C@H](C(C)C)N(C)C(=O)OCc1ccc(NC(=O)[C@H](CCCNC(N)=O)NC(=O)[C@@H](NC(=O)CCCc2cn(CCCNC(=O)[C@H](Cc3ccc(O)cc3)NC(=O)[C@H](Cc3ccccc3)NC(=O)CCC(=O)NCCCCCC(=O)N(CCCC[C@H](NC(=O)N[C@@H](CCC(=O)O)C(=O)O)C(=O)O)Cc3cccc(Cl)c3)nn2)C(C)C)cc1)C(C)C", "note": "[I, reference compound] ({GluureaLys(ε-3-ClBenzyl)-Ahx-Suc}-FY[X2]V[Cit][PABC][NMeV]V[Dil][Dolaproine]-X1)", "values": [
      {"measurement": "body weight, mass ± error", "setting": "[1]; 22Rv1 xenograft mice, 7 day after tumor implantation (1st injection)", "value": "23.4 ± 0.8", "unit": "g"},
      {"measurement": "body weight, mass ± error", "setting": "[1]; 22Rv1 xenograft mice, 12 day after tumor implantation (2nd injection)", "value": "23.9 ± 1.2", "unit": "g"},
      {"measurement": "body weight, mass ± error", "setting": "[1]; 22Rv1 xenograft mice, 17 day after tumor implantation (3rd injection)", "value": "23.5 ± 1.7", "unit": "g"},
      {"measurement": "body weight, mass ± error", "setting": "[1]; 22Rv1 xenograft mice, 22 day after tumor implantation", "value": "23.4 ± 1.5", "unit": "g"},
      {"measurement": "body weight, mass ± error", "setting": "[1]; 22Rv1 xenograft mice, 27 day after tumor implantation", "value": "23.2 ± 1.4", "unit": "g"},
      {"measurement": "body weight, mass ± error", "setting": "[1]; 22Rv1 xenograft mice, 33 day after tumor implantation", "value": "23.2 ± 1.6", "unit": "g"},
      {"measurement": "body weight, mass ± error", "setting": "[1]; 22Rv1 xenograft mice, 37 day after tumor implantation", "value": "23.4 ± 1.5", "unit": "g"},
      {"measurement": "body weight, mass ± error", "setting": "[1]; PC-3 xenograft mice, 7 day after tumor implantation (1st injection)", "value": "22.4 ± 2.1", "unit": "g"},
      {"measurement": "body weight, mass ± error", "setting": "[1]; PC-3 xenograft mice, 12 day after tumor implantation (2nd injection)", "value": "22.8 ± 1.8", "unit": "g"},
      {"measurement": "body weight, mass ± error", "setting": "[1]; PC-3 xenograft mice, 17 day after tumor implantation (3rd injection)", "value": "22.4 ± 1.6", "unit": "g"},
      {"measurement": "body weight, mass ± error", "setting": "[1]; PC-3 xenograft mice, 22 day after tumor implantation", "value": "22.8 ± 1.4", "unit": "g"},
      {"measurement": "body weight, mass ± error", "setting": "[1]; PC-3 xenograft mice, 27 day after tumor implantation", "value": "23.0 ± 1.3", "unit": "g"},
      {"measurement": "body weight, mass ± error", "setting": "[1]; PC-3 xenograft mice, 33 day after tumor implantation", "value": "23.2 ± 1.4", "unit": "g"},
      {"measurement": "body weight, mass ± error", "setting": "[1]; PC-3 xenograft mice, 37 day after tumor implantation", "value": "23.1 ± 1.3", "unit": "g"},
      {"measurement": "tumor volume V±m", "setting": "[2]; [4]", "value": "80.3±4.5", "unit": "mm3"},
      {"measurement": "tumor volume V±m", "setting": "[2]; [5]", "value": "92.6±14.8", "unit": "mm3"},
      {"measurement": "tumor volume V±m", "setting": "[2]; [6]", "value": 128.9, "unit": "mm3"},
      {"measurement": "tumor volume V±m", "setting": "[2]; [7]", "value": 1059.1, "unit": "mm3"},
      {"measurement": "tumor volume V±m", "setting": "[2]; [8]", "value": 1855.5, "unit": "mm3"},
      {"measurement": "Tumor growth inhibition", "setting": "[2]; [9]", "value": 37.2, "unit": "%"},
      {"measurement": "Tumor growth inhibition", "setting": "[2]; [10]", "value": 21.1, "unit": "%"},
      {"measurement": "TGI, did not exceed", "setting": "[2]; i.v. 132.3 nM/kg three times at five-day intervals, male Balb/c nude mice", "value": "≤ 37.7", "unit": "%"},
      {"measurement": "tumor volume V±m", "setting": "[3]; [4]", "value": "78.3±16.3", "unit": "mm3"},
      {"measurement": "tumor volume V±m", "setting": "[3]; [5]", "value": "85.4±25.5", "unit": "mm3"},
      {"measurement": "tumor volume V±m", "setting": "[3]; [6]", "value": "92.6±34.8", "unit": "mm3"},
      {"measurement": "tumor volume V±m", "setting": "[3]; 22 day after tumor implantation", "value": 147.7, "unit": "mm3"},
      {"measurement": "tumor volume V±m", "setting": "[3]; [7]", "value": 419.5, "unit": "mm3"},
      {"measurement": "tumor volume V±m", "setting": "[3]; [8]", "value": 824.4, "unit": "mm3"},
      {"measurement": "Tumor growth inhibition", "setting": "[3]; days after the start of treatment: 1", "value": 77.4, "unit": "%"},
      {"measurement": "Tumor growth inhibition", "setting": "[3]; [9]", "value": 80.1, "unit": "%"},
      {"measurement": "Tumor growth inhibition", "setting": "[3]; [10]", "value": 71.0, "unit": "%"}
    ]}
  ]
}
